Data from PubChem BioAssay AID330 (DTP/NCI, 2004).
Where “and” joins values, the source holds several entries; their conditions need not be identical. Equal entries are not always repeated. Inconclusive results and toxic doses are left out.

Test system: P388 leukemia ip, CD2F1 mice, survival T/C
Test: NCI In Vivo Anticancer Drug Screen. Data for tumor model P388 Leukemia (intraperitoneal) in CD2F1 (CDF1) mice
Conditions: endpoint: median survival time, higher = longer survival
In short: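 Mice carrying the transplanted tumor received test compound or vehicle. Survival was recorded in each group, and the value is the treated-group measurement divided by that of the vehicle-treated control group.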

[1] = dose: 50.0 mg/kg/injection, schedule: Q01DX009 (ip), vehicle: saline with Tween-80
[2] = dose: 100.0 mg/kg/injection, schedule: Q01DX009 (ip), vehicle: saline with Tween-80
[3] = dose: 200.0 mg/kg/injection, schedule: Q01DX009 (ip), vehicle: saline with Tween-80
[4] = dose: 60.0 mg/kg/injection, schedule: Q01DX005 (ip), vehicle: saline with Tween-80
[5] = dose: 50.0 mg/kg/injection, schedule: Q01DX005 (ip), vehicle: saline with Tween-80
[6] = dose: 50.0 mg/kg/injection, schedule: Q01DX005 (ip), vehicle: Klucel (hydroxypropylcellulose) (HPC)
[7] = dose: 100.0 mg/kg/injection, schedule: Q01DX005 (ip), vehicle: Klucel (hydroxypropylcellulose) (HPC)
[8] = dose: 200.0 mg/kg/injection, schedule: Q01DX005 (ip), vehicle: Klucel (hydroxypropylcellulose) (HPC)
[9] = dose: 60.0 mg/kg/injection, schedule: Q01DX005 (ip), vehicle: Klucel (hydroxypropylcellulose) (HPC)
[10] = dose: 120.0 mg/kg/injection, schedule: Q01DX005 (ip), vehicle: Klucel (hydroxypropylcellulose) (HPC)
[11] = dose: 100.0 mg/kg/injection, schedule: Q04DX002 (ip), vehicle: saline with Tween-80
[12] = dose: 120.0 mg/kg/injection, schedule: Q01DX005 (ip), vehicle: saline with Tween-80
[13] = dose: 100.0 mg/kg/injection, schedule: Q01DX005 (ip), vehicle: saline with Tween-80
[14] = dose: 200.0 mg/kg/injection, schedule: Q01DX005 (ip), vehicle: saline with Tween-80

O=[N+]([O-])c1ccc2nc3c4ccccc4c4ccccc4c3nc2c1
T/C (dose: 12.5 mg/kg/injection, schedule: Q01DX009 (ip), vehicle: saline with Tween-80): 105 % of control | T/C (dose: 25.0 mg/kg/injection, schedule: Q01DX009 (ip), vehicle: saline with Tween-80): 116 % of control | T/C [1]: 109 % of control and 117 % of control | T/C [2]: 105 % of control | T/C [3]: 104 % of control

COc1ccc(C(c2c(O)c3ccccc3oc2=O)c2c(O)c3ccccc3oc2=O)cc1
T/C (dose: 15.0 mg/kg/injection, schedule: Q01DX005 (ip), vehicle: saline with Tween-80): 98 % of control | T/C (dose: 30.0 mg/kg/injection, schedule: Q01DX005 (ip), vehicle: saline with Tween-80): 98 % of control | T/C [4]: 100 % of control and 98 % of control

O=C(N/N=C\c1ccc(Cl)cc1)c1ccccc1
T/C [1]: 95 % of control | T/C [2]: 90 % of control | T/C [3]: 104 % of control

C(#C[P+]1(c2ccccc2)C=C(c2ccccc2)OC(c2ccccc2)=C1)c1ccccc1
T/C (dose: 12.5 mg/kg/injection, schedule: Q01DX005 (ip), vehicle: saline with Tween-80): 107 % of control | T/C (dose: 25.0 mg/kg/injection, schedule: Q01DX005 (ip), vehicle: saline with Tween-80): 102 % of control | T/C [5]: 107 % of control

COc1ccccc1N1C(=O)CC(Sc2ccccc2N)C1=O (stereo not drawn)
T/C (dose: 100.0 mg/kg/injection, schedule: Q04DX003 (ip), vehicle: saline with Tween-80): 104 % of control | T/C (dose: 200.0 mg/kg/injection, schedule: Q04DX003 (ip), vehicle: saline with Tween-80): 90 % of control | T/C (dose: 400.0 mg/kg/injection, schedule: Q04DX003 (ip), vehicle: saline with Tween-80): 90 % of control

CN(C)c1nc(N(C)C)oc(=[N+](C)C)n1
T/C (dose: 6.25 mg/kg/injection, schedule: Q01DX005 (ip), vehicle: saline): 106 % of control | T/C (dose: 12.5 mg/kg/injection, schedule: Q01DX005 (ip), vehicle: saline): 103 % of control | T/C (dose: 25.0 mg/kg/injection, schedule: Q01DX005 (ip), vehicle: saline): 113 % of control

COc1ccc(-c2c3ccc(OC)cc3n3ccccc23)cc1
T/C (dose: 100.0 mg/kg/injection, schedule: Q01DX002 (ip), vehicle: saline with Tween-80): 99 % of control | T/C (dose: 200.0 mg/kg/injection, schedule: Q01DX002 (ip), vehicle: saline with Tween-80): 97 % of control | T/C (dose: 400.0 mg/kg/injection, schedule: Q01DX002 (ip), vehicle: saline with Tween-80): 107 % of control

O=c1[nH]ccc2nncn12
T/C (dose: 100.0 mg/kg/injection, schedule: Q01DX001 (ip), vehicle: saline with Tween-80): 100 % of control | T/C (dose: 200.0 mg/kg/injection, schedule: Q01DX001 (ip), vehicle: saline with Tween-80): 106 % of control | T/C (dose: 400.0 mg/kg/injection, schedule: Q01DX001 (ip), vehicle: saline with Tween-80): 99 % of control

CCOP(=O)(Nc1ccc(OC)cc1)OCC
T/C (dose: 50.0 mg/kg/injection, schedule: Q01DX009 (ip), vehicle: saline): 103 % of control | T/C (dose: 100.0 mg/kg/injection, schedule: Q01DX009 (ip), vehicle: saline): 108 % of control | T/C (dose: 200.0 mg/kg/injection, schedule: Q01DX009 (ip), vehicle: saline): 111 % of control

O=C(O)CNc1ccccc1Br
T/C [6]: 105 % of control | T/C [7]: 97 % of control | T/C [8]: 96 % of control

CCc1ncc(C(O)c2ccc(Cl)cc2)n1Cc1ccccc1 (stereo not drawn)
T/C [9]: 93 % of control | T/C [10]: 93 % of control | T/C (dose: 240.0 mg/kg/injection, schedule: Q01DX005 (ip), vehicle: Klucel (hydroxypropylcellulose) (HPC)): 90 % of control

COC1NC(=O)N(C)N(C)C1=O (stereo not drawn)
T/C (dose: 50.0 mg/kg/injection, schedule: Q01DX005 (ip), vehicle: saline): 100 % of control | T/C (dose: 100.0 mg/kg/injection, schedule: Q01DX005 (ip), vehicle: saline): 99 % of control | T/C (dose: 200.0 mg/kg/injection, schedule: Q01DX005 (ip), vehicle: saline): 100 % of control

O=C(CCc1ccccc1)c1c(O)c(Cc2ccccc2O)c2c(c1O)Cc1ccccc1O2
T/C (dose: 1.5 mg/kg/injection, schedule: Q01DX009 (ip), vehicle: Klucel (hydroxypropylcellulose) (HPC)): 100 % of control | T/C (dose: 3.0 mg/kg/injection, schedule: Q01DX009 (ip), vehicle: Klucel (hydroxypropylcellulose) (HPC)): 98 % of control | T/C (dose: 6.0 mg/kg/injection, schedule: Q01DX009 (ip), vehicle: Klucel (hydroxypropylcellulose) (HPC)): 98 % of control | T/C (dose: 12.0 mg/kg/injection, schedule: Q01DX009 (ip), vehicle: Klucel (hydroxypropylcellulose) (HPC)): 98 % of control

COc1cc(C2(C3CC(=O)OC3COC(c3ccccc3)(c3ccccc3)c3ccccc3)SCCCS2)cc(OC)c1OC (stereo not drawn)
T/C [11]: 88 % of control

C1CCC2(CC1)SC1(CCCCC1)SC1(CCCCC1)S2
T/C (dose: 100.0 mg/kg/injection, schedule: Q04DX003 (ip), vehicle: other): 100 % of control | T/C (dose: 200.0 mg/kg/injection, schedule: Q04DX003 (ip), vehicle: other): 90 % of control | T/C (dose: 400.0 mg/kg/injection, schedule: Q04DX003 (ip), vehicle: other): 95 % of control

O=S12(OC(C(F)(F)F)(C(F)(F)F)c3ccccc31)OC(C(F)(F)F)(C(F)(F)F)c1ccccc12
T/C [6]: 111 % of control | T/C [7]: 103 % of control | T/C [8]: 100 % of control

CC(C)=CCC(OC(=O)C=C(C)C)c1cc(O)c2c(O)ccc(O)c2c1O.[O]=[V] (stereo not drawn)
T/C [11]: 92 % of control | T/C (dose: 200.0 mg/kg/injection, schedule: Q04DX002 (ip), vehicle: saline with Tween-80): 92 % of control | T/C (dose: 400.0 mg/kg/injection, schedule: Q04DX002 (ip), vehicle: saline with Tween-80): 109 % of control

COC(=O)Nc1cn2nc(C)sc2n1
T/C [4]: 99 % of control | T/C [12]: 94 % of control | T/C (dose: 240.0 mg/kg/injection, schedule: Q01DX005 (ip), vehicle: saline with Tween-80): 91 % of control

CCN(CC)CCOC(=O)C(OCCC(C)C)(c1ccccc1)c1ccccc1
T/C [6]: 113 % of control | T/C [7]: 113 % of control

CCOC(=O)COc1cc2c(cc1C(C)c1ccc(OCc3ccccc3)c(OC)c1)OCO2 (stereo not drawn)
T/C [6]: 87 % of control | T/C [7]: 90 % of control

Cc1ccc(S(=O)(=O)C2(NC(=O)C3CC3)CC2)cc1
T/C [9]: 89 % of control | T/C [10]: 89 % of control

COc1c(COC(C)=O)ccc2c1C(=O)c1ccccc1C2=O
T/C (dose: 100.0 mg/kg/injection, schedule: Q04DX002 (ip), vehicle: Klucel (hydroxypropylcellulose) (HPC)): 108 % of control | T/C (dose: 200.0 mg/kg/injection, schedule: Q04DX002 (ip), vehicle: Klucel (hydroxypropylcellulose) (HPC)): 92 % of control | T/C (dose: 400.0 mg/kg/injection, schedule: Q04DX002 (ip), vehicle: Klucel (hydroxypropylcellulose) (HPC)): 93 % of control

O=C(/N=C1\N=Nc2nc(CC(=O)c3cccc4ccccc34)c(O)n21)Nc1ccc(Cl)cc1
T/C [5]: 96 % of control | T/C [13]: 103 % of control | T/C [14]: 104 % of control

N#CNC1=NCOCN1
T/C [4]: 100 % of control | T/C [12]: 100 % of control

N#CC1=C(C#N)C(=O)C(Br)=C(Br)C1=O
T/C (dose: 12.5 mg/kg/injection, schedule: Q01DX005 (ip), vehicle: Klucel + Tween-80): 108 % of control | T/C (dose: 25.0 mg/kg/injection, schedule: Q01DX005 (ip), vehicle: Klucel + Tween-80): 106 % of control | T/C (dose: 50.0 mg/kg/injection, schedule: Q01DX005 (ip), vehicle: Klucel + Tween-80): 108 % of control

O=C(N/N=C/c1ccccn1)c1ccccc1[O-].O=C(N/N=C/c1ccccn1)c1ccccc1[O-].[Co+2]
T/C [6]: 113 % of control | T/C [7]: 117 % of control

CC(C)Cc1nccs1.CC(C)Cc1nccs1.CC(C)Cc1nccs1.CC(C)Cc1nccs1.[Cl][Rh][Cl]
T/C (dose: 25.0 mg/kg/injection, schedule: Q01DX001 (ip), vehicle: Klucel (hydroxypropylcellulose) (HPC)): 108 % of control | T/C (dose: 50.0 mg/kg/injection, schedule: Q01DX001 (ip), vehicle: Klucel (hydroxypropylcellulose) (HPC)): 100 % of control | T/C (dose: 100.0 mg/kg/injection, schedule: Q01DX001 (ip), vehicle: Klucel (hydroxypropylcellulose) (HPC)): 112 % of control

CN=C(N)NN=C(c1cccc(F)c1)c1cccc(F)c1
T/C (dose: 25.0 mg/kg/injection, schedule: Q04DX002 (ip), vehicle: saline with Tween-80): 100 % of control | T/C (dose: 50.0 mg/kg/injection, schedule: Q04DX002 (ip), vehicle: saline with Tween-80): 102 % of control | T/C [11]: 100 % of control

Cc1ccc(N(CC(=O)O)S(=O)(=O)c2ccccc2)c(C)c1Cc1cccc(Br)c1
T/C [5]: 101 % of control | T/C [13]: 104 % of control | T/C [14]: 101 % of control
